#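 Tested at 5 concentrations; 48 h exposure; 96-well plates; endpoints linearly interpolated, else capped at highest concentration. Definition used: TGI = concentration required for complete inhibition of growth.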
# Tests used:
# Assay in all cases: NCI anticancer screen, dose series, 48 h
# PC-3 prostate = system: PC-3 prostate
# OVCAR-3 ovarian = system: OVCAR-3 ovarian
# K-562 leukemia = system: K-562 leukemia
# HT29 colon = system: HT29 colon
# BT-549 breast = system: BT-549 breast
# HCC-2998 colon = system: HCC-2998 colon
# SW-620 colon = system: SW-620 colon
# 786-0 renal = system: 786-0 renal
# MDA-MB-231 breast = system: MDA-MB-231 breast
# SK-OV-3 ovarian = system: SK-OV-3 ovarian
# HS 578T breast = system: HS 578T breast
# SNB-19 CNS = system: SNB-19 CNS
# A549 NSCLC = system: A549 NSCLC
# MOLT-4 leukemia = system: MOLT-4 leukemia
# MCF7 breast = system: MCF7 breast
# COLO 205 colon = system: COLO 205 colon
# HOP-92 NSCLC = system: HOP-92 NSCLC
# SN12C renal = system: SN12C renal
# HCT-15 colon = system: HCT-15 colon
# EKVX NSCLC = system: EKVX NSCLC
# NCI-H226 lung = system: NCI-H226 lung
# T-47D breast = system: T-47D breast
# A498 renal = system: A498 renal
# RXF 393 renal = system: RXF 393 renal
# SF-268 CNS = system: SF-268 CNS
# SR leukemia = system: SR leukemia
# UACC-257 melanoma = system: UACC-257 melanoma
# HCT-116 colon = system: HCT-116 colon
# OVCAR-5 ovarian = system: OVCAR-5 ovarian
# DU-145 prostate = system: DU-145 prostate
# ACHN renal = system: ACHN renal
# MDA-N = system: MDA-N
# MDA-MB-435 = system: MDA-MB-435
# U251 CNS = system: U251 CNS
# CCRF-CEM leukemia = system: CCRF-CEM leukemia
# HOP-62 NSCLC = system: HOP-62 NSCLC
# KM12 colon = system: KM12 colon
# SF-539 CNS = system: SF-539 CNS
# TK-10 renal = system: TK-10 renal
# HL-60(TB) leukemia = system: HL-60(TB) leukemia
# RPMI-8226 leukemia = system: RPMI-8226 leukemia
# IGROV1 ovarian = system: IGROV1 ovarian
# SNB-75 CNS = system: SNB-75 CNS
# OVCAR-4 ovarian = system: OVCAR-4 ovarian
# CAKI-1 renal = system: CAKI-1 renal
# UO-31 renal = system: UO-31 renal
# NCI-H460 lung = system: NCI-H460 lung
# SK-MEL-28 melanoma = system: SK-MEL-28 melanoma
# NCI/ADR-RES ovarian = system: NCI/ADR-RES ovarian
# LOX IMVI melanoma = system: LOX IMVI melanoma
# UACC-62 melanoma = system: UACC-62 melanoma
# M14 melanoma = system: M14 melanoma
# SK-MEL-2 melanoma = system: SK-MEL-2 melanoma
# NCI-H23 lung = system: NCI-H23 lung
# SF-295 CNS = system: SF-295 CNS
compound,measurement,setting,value
NC(N)=NCCCC(NC(=O)OCCCCCCn1ccc(N)nc1=O)C(=O)O (stereo not given),TGI,PC-3 prostate,> 100 µM
same,TGI,OVCAR-3 ovarian,> 100 µM
same,TGI,K-562 leukemia,> 100 µM
same,TGI,HT29 colon,> 100 µM
same,TGI,BT-549 breast,> 100 µM
same,TGI,HCC-2998 colon,> 100 µM
same,TGI,SW-620 colon,> 100 µM
same,TGI,786-0 renal,> 100 µM
same,TGI,MDA-MB-231 breast,> 100 µM
same,TGI,SK-OV-3 ovarian,> 100 µM
same,TGI,HS 578T breast,> 100 µM
same,TGI,SNB-19 CNS,> 100 µM
same,TGI,A549 NSCLC,> 100 µM
same,TGI,MOLT-4 leukemia,> 100 µM
same,TGI,MCF7 breast,> 100 µM
same,TGI,COLO 205 colon,> 100 µM
same,TGI,HOP-92 NSCLC,> 100 µM
same,TGI,SN12C renal,> 100 µM
same,TGI,HCT-15 colon,> 100 µM
same,TGI,EKVX NSCLC,> 100 µM
same,TGI,NCI-H226 lung,33.6 µM
same,TGI,T-47D breast,> 100 µM
same,TGI,A498 renal,> 100 µM
same,TGI,RXF 393 renal,> 100 µM
same,TGI,SF-268 CNS,> 100 µM
same,TGI,SR leukemia,> 100 µM
same,TGI,UACC-257 melanoma,> 100 µM
same,TGI,HCT-116 colon,> 100 µM
same,TGI,OVCAR-5 ovarian,> 100 µM
same,TGI,DU-145 prostate,> 100 µM
same,TGI,ACHN renal,> 100 µM
same,TGI,MDA-N,> 100 µM
same,TGI,MDA-MB-435,> 100 µM
same,TGI,U251 CNS,> 100 µM
same,TGI,CCRF-CEM leukemia,> 100 µM
same,TGI,HOP-62 NSCLC,> 100 µM
same,TGI,KM12 colon,> 100 µM
same,TGI,SF-539 CNS,> 100 µM
same,TGI,TK-10 renal,> 100 µM
same,TGI,HL-60(TB) leukemia,> 100 µM
same,TGI,RPMI-8226 leukemia,> 100 µM
same,TGI,IGROV1 ovarian,> 100 µM
same,TGI,SNB-75 CNS,> 100 µM
same,TGI,OVCAR-4 ovarian,> 100 µM
same,TGI,CAKI-1 renal,> 100 µM
same,TGI,UO-31 renal,> 100 µM
same,TGI,NCI-H460 lung,> 100 µM
same,TGI,SK-MEL-28 melanoma,> 100 µM
same,TGI,NCI/ADR-RES ovarian,> 100 µM
same,TGI,LOX IMVI melanoma,> 100 µM
same,TGI,UACC-62 melanoma,> 100 µM
same,TGI,M14 melanoma,> 100 µM
same,TGI,SK-MEL-2 melanoma,> 100 µM
same,TGI,NCI-H23 lung,> 100 µM
same,TGI,SF-295 CNS,> 100 µM
